# What was measured:
# S100A4 [1] = biological target: T1, S100A4 (Homo sapiens, UniProt P26447); assay: Competition pull-down with native ligand NMIIA (1893–1923); assay type: binding; settings: H14 library; competitor peptide 200 µM; read-out: Surface mapping KD (apparent), competition
# T1 construct: made in house; host or cells: Escherichia coli BL21(DE3)
# S100B [2] = biological target: T2, S100B (Homo sapiens, UniProt P04271); assay: Competition pull-down with native ligand RSK1 (689–735); assay type: binding; settings: H14 library; competitor peptide 200 µM; read-out: Surface mapping KD (apparent), competition
# T2 construct: made in house; host or cells: Escherichia coli BL21(DE3)
# T2 sequence (P04271 1-92): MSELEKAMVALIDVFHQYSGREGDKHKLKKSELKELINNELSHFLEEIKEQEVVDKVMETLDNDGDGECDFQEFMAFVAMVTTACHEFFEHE
# RecQ-WH [3] = biological target: T3, RecQ-WH (Escherichia coli, UniProt P15043); assay: Competition pull-down with native ligand SSB-Ct8; assay type: binding, E. coli; settings: H14 library; competitor peptide 200 µM; read-out: Surface mapping KD (apparent), competition
# T3 construct: coding for residues 408– 523 of E. coli RecQ; made in house; host or cells: E. coli BL21(DE3)
# RecQ-WH [4] = biological target: T3, RecQ-WH; assay: Pull-down assay with immobilized protein and LSM libraries; set-up: species or system E. coli; settings: H14 library; 1:1 binding assumed; read-out: Surface mapping KD (apparent)
# How it was run: (§1)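 His-tagged protein immobilized on Co-NTA resin (64 µM) in 20 mM HEPES pH 7.4, 150 mM NaCl, equilibrated 30 min at room temperature with foldamer LSM sublibraries at equimolar total concentration. Unbound fractions quantified by HPLC-MS versus protein-free resin control; apparent KD assumes 1:1 binding.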
# CaM [5] = biological target: T4, CaM (Bos taurus, UniProt P62157); assay: Competition pull-down with native ligand TRPV1-Ct15; assay type: binding, bovine; settings: H14 library; competitor peptide 200 µM; read-out: Surface mapping KD (apparent), competition
# T4 construct: made in house; host or cells: E. coli BL21 (DE3)
# Gal-1 [6] = biological target: T5, Gal-1 (Homo sapiens, UniProt P09382); assay: Competition pull-down with lactose; assay type: binding; settings: H14 library; lactose 10 mM; read-out: Surface mapping KD (apparent), competition
# T5 construct: made in house; host or cells: E. coli BL21(DE3)
# How it was run: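 His6-tagged proteins immobilized on Co-NTA resin at 64 µM final with 64-member LSM foldamer sublibraries (1 M each, as printed) in pH 7.4 HEPES/NaCl buffers (Ca2+/TCEP per target), 30 min RT; competitor peptides 200 µM final, lactose 10 mM for Gal-1. Bound fractions from LC-MS loss vs protein-free resin; KD assuming 1:1 binding.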
# CaM [7] = biological target: T4, CaM; assay: Pull-down assay with immobilized protein and LSM libraries; assay type: binding, bovine; settings: H14 library; 1:2 stoichiometry assumed; read-out: Surface mapping KD (apparent)
# How it was run: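 His-tagged protein immobilized on Co-NTA resin, equilibrated 30 min at room temperature with LSM sublibraries (64 members, […]), equimolar protein to total probe. CaM buffer: 20 mM HEPES pH 7.4, 150 mM NaCl, 5 mM CaCl2. Bound fractions from HPLC-MS loss of unbound probe versus protein-free resin control; Kd derived.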
# Gal-1 [8] = biological target: T5, Gal-1; assay: as above; assay type: binding; settings: H14 library; 1:1 binding assumed; read-out: Surface mapping KD (apparent)
# How it was run: as §1
# S100B [9] = biological target: T2, S100B; assay: as above; assay type: binding; settings: for Kd: H14 library, 1:1 binding assumed, read-out: Surface mapping KD (apparent)
# How it was run: (§2)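 Buffers were HEPES pH 7.4 with 150 mM NaCl, plus 1 mM TCEP and 1 mM CaCl2 (50 mM HEPES) for S100A4 and S100B, 1 mM TCEP for Gal-1, and no additive for RecQ-WH. Immobilized protein at 64 µM was equilibrated 30 min with the LSM sublibrary, and unbound probes were measured by LC-MS.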
# S100A4 [10] = biological target: T1, S100A4; assay: as above; assay type: binding; settings: for Kd: H14 library, 1:1 binding assumed, read-out: Surface mapping KD (apparent)
# How it was run: as §2
# [11] = H14 probes selected for validation
# T3 sequence (P15043 408-523): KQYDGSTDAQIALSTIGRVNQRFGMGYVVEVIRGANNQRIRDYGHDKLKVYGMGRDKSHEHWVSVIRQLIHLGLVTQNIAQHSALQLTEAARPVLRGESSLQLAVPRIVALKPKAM
# T5 sequence (P09382 whole entry): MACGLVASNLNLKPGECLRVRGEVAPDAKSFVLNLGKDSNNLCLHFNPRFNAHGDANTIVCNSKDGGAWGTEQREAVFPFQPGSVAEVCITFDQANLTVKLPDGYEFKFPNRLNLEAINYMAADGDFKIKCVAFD
# T1 sequence (P26447 whole entry): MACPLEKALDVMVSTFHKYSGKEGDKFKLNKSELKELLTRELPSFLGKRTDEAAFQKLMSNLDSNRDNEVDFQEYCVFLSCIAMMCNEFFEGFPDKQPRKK
SMILES,Kd (S100A4 [1]) [µM],Kd (S100B [2]) [µM],Kd (RecQ-WH [3]) [µM],Kd (RecQ-WH [4]) [µM],Kd (CaM [5]) [µM],Kd (Gal-1 [6]) [µM],Kd (CaM [7]) [µM],Kd (Gal-1 [8]) [µM],Kd (S100B [9]) [µM],Kd (S100A4 [10]) [µM],"Affinity class of probe (high, medium, low) in pull-down (S100B [9]; [11])","Affinity class of probe (high, medium, low) in pull-down (S100A4 [10]; [11])"
CC(C)C[C@@H](CC(=O)N[C@H]1CCCC[C@@H]1C(=O)N[C@H]1CCCC[C@@H]1C(=O)N[C@H](CC(=O)N[C@H]1CCCC[C@@H]1C(N)=O)Cc1c[nH]c2ccccc12)NC(=O)[C@H]1CCCC[C@@H]1N [H14 LW],244,67,315,195,88,65,0.4,38,21,8,–,–
CC(C)[C@@H](CC(=O)N[C@H]1CCCC[C@@H]1C(N)=O)NC(=O)[C@H]1CCCC[C@@H]1NC(=O)[C@H]1CCCC[C@@H]1NC(=O)C[C@H](Cc1ccccc1)NC(=O)[C@H]1CCCC[C@@H]1N [H14 FV],376,253,–,129,141,323,1.2,199,44,12,–,–
CC(C)C[C@@H](CC(=O)N[C@H]1CCCC[C@@H]1C(N)=O)NC(=O)[C@H]1CCCC[C@@H]1NC(=O)[C@H]1CCCC[C@@H]1NC(=O)C[C@H](Cc1ccccc1)NC(=O)[C@H]1CCCC[C@@H]1N [H14 FL],280,202,266,79,121,164,0.6,102,21,9,–,–
CC[C@H](C)[C@@H](CC(=O)N[C@H]1CCCC[C@@H]1C(=O)N[C@H]1CCCC[C@@H]1C(=O)N[C@H](CC(=O)N[C@H]1CCCC[C@@H]1C(N)=O)Cc1ccccc1)NC(=O)[C@H]1CCCC[C@@H]1N [H14 IF],162,64,439,186,102,53,9,33,9,2,high,high
CC(C)C[C@@H](CC(=O)N[C@H]1CCCC[C@@H]1C(=O)N[C@H]1CCCC[C@@H]1C(=O)N[C@H](CC(=O)N[C@H]1CCCC[C@@H]1C(N)=O)Cc1ccccc1)NC(=O)[C@H]1CCCC[C@@H]1N [H14 LF],140,71,439,186,162,43,11,25,11,3,–,–
CC[C@H](C)[C@@H](CC(=O)N[C@H]1CCCC[C@@H]1C(=O)N[C@H]1CCCC[C@@H]1C(=O)N[C@H](CC(=O)N[C@H]1CCCC[C@@H]1C(N)=O)Cc1c[nH]c2ccccc12)NC(=O)[C@H]1CCCC[C@@H]1N [H14 IW],244,67,315,195,88,65,0.4,38,21,8,–,–
CC[C@H](C)[C@@H](CC(=O)N[C@H]1CCCC[C@@H]1C(N)=O)NC(=O)[C@H]1CCCC[C@@H]1NC(=O)[C@H]1CCCC[C@@H]1NC(=O)C[C@@H](NC(=O)[C@H]1CCCC[C@@H]1N)[C@@H](C)CC [H14 II],101,147,364,160,280,50,9,24,19,2,–,–
CSCC[C@@H](CC(=O)N[C@H]1CCCC[C@@H]1C(N)=O)NC(=O)[C@H]1CCCC[C@@H]1NC(=O)[C@H]1CCCC[C@@H]1NC(=O)C[C@H](CC(C)C)NC(=O)[C@H]1CCCC[C@@H]1N [H14 LM],318,163,–,233,468,334,14,138,67,4,–,–

# From article PMC8162404, “Proteomimetic surface fragments distinguish targets by function” (Chemical Science, 2020)
